Tested on: Melanoma cells of the Sk-MEL-28 cell line
Test: Drug test with doxorubicin in modular cancer/BM/stroma ribbon fibres, Calcein AM / Propidium Iodide viability
Assay type: cell-based, human
Conditions: 1 μM Doxorubicin, 24 h treatment
Source text: Melanoma cells of the Sk-MEL-28 (ATCC) cell line were encapsulated in the GG/GelMA compartment and human dermal fibroblasts (hDFs) were encapsulated in the GG compartment, both representing the cancer and stroma, respectively, separated by the basement-membrane-mimicking GelTrex/HA. […] In order to track the different cell types, these were stained with CellBrite Green and Orange (Biotium) according to the manufacturer's instructions. […] With this model, melanoma cells were included in the cancer compartment, and dermal fibroblasts within the stromal compartment, both separated by a GelTrex BM in a unique melanoma-on-a-fibre structure. Fibres with tracked cells were observed under an Inverted Confocal Laser Scanning Microscope (Leica), throughout one week of culture.
For the drug tests, fibroblasts were stained blue prior to encapsulation using CellTracker blue CMAC Dye (7-amino 4-chloromethylcoumarin, Molecular Probes) according to manufacturer's instructions. These were then integrated in the fibres together with the cancer cells, and all modular fibres were produced. 24 h after fabrication, fibres were incubated with either culture medium (no treatment) or culture medium containing 1 μM of Doxorubicin (Carbosynth). One day after treatment, samples were incubated with medium containing 1:1000 dilution of Calcein AM (Thermofisher) and 1 μg/mL Propidium Iodide (Molecular Probes) for 30 mins at 37° C., 5% CO2, for viability assessment. Images of the fibres were acquired in the Axio Observer inverted Microscope (Zeiss), and a cell profiler pipeline was used to derive the numbers of live and dead cells using the blue staining to distinguish fibroblasts from melanoma cells. Similarly, 2D controls were obtained by simply seeding the cells individually or in co-culture in 24 well-plates at a density of 20×10^3 cells per well (10×10^3 cells of each type in the case of co-cultures). 2D controls were then processed in the same way as the fibres. […]

## COc1cccc2c1C(=O)c1c(O)c3c(c(O)c1C2=O)C[C@@](O)(C(=O)CO)C[C@@H]3O[C@H]1C[C@H](N)[C@H](O)[C@H](C)O1 [Doxorubicin]
cancer-only fibres
  cancer cell viability vs. the control: significant drop in viability
cancer/stroma fibres (no BM)
  cancer cell viability vs. the control: no longer significant
Full cancer/BM/stroma fibres
  numbers of live cancer cells upon treatment: numbers of live cancer cells can improve
